Data from patent US11597752B2, “Peptides and combination of peptides and scaffolds thereof for use in immunotherapy against colorectal carcinoma (CRC) and other cancers” (priority 2015, dated 2023).

Key:
[1] = test system: CD8+ T-cells of healthy HLA-A*02 donors; experiment: In vitro immunogenicity: T-cell priming with aAPCs loaded with peptide/MHC and anti-CD28, multimer staining; assay type: cell-based, human; conditions: HLA-A*02 restricted peptides, among evaluable wells, Table 10B
Text: In order to obtain information regarding the immunogenicity of the TUMAPs of the present invention, the inventors performed investigations using an in vitro T-cell priming assay based on repeated stimulations of CD8+ T-cells with artificial antigen presenting cells (aAPCs) loaded with peptide/MHC complexes and anti-CD28 antibody.
In order to perform in vitro stimulations by artificial antigen presenting cells loaded with peptide-MHC complex (pMHC) and anti-CD28 antibody, the inventors first isolated CD8+ T-cells from fresh HLA-A*02 leukapheresis products via positive selection using CD8 microbeads (Miltenyi Biotec, Bergisch-Gladbach, Germany) of healthy donors obtained from the University clinics Mannheim, Germany, after informed consent.
PBMCs and isolated CD8+ lymphocytes were incubated in T-cell medium (TCM) until use consisting of RPMI-Glutamax (Invitrogen, Karlsruhe, Germany) supplemented with 10% heat inactivated human AB serum (PAN-Biotech, Aidenbach, Germany), 100 U/ml Penicillin/100 μg/ml Streptomycin (Cambrex, Cologne, Germany), 1 mM sodium pyruvate (CC Pro, Oberdorla, Germany), 20 μg/ml Gentamycin (Cambrex). 2.5 ng/ml IL-7 (PromoCell, Heidelberg, Germany) and 10 U/ml IL-2 (Novartis Pharma, Nürnberg, Germany) were also added to the TCM at this step.
Generation of pMHC/anti-CD28 coated beads, T-cell stimulations and readout was performed in a highly defined in vitro system using four different pMHC molecules per stimulation condition and 8 different pMHC molecules per readout condition.
The purified co-stimulatory mouse IgG2a anti human CD28 Ab 9.3 (Jung et al., 1987) was chemically biotinylated using Sulfo-N-hydroxysuccinimidobiotin as recommended by the manufacturer (Perbio, Bonn, Germany). Beads used were 5.6 μm diameter streptavidin coated polystyrene particles (Bangs Laboratories, Illinois, USA).
800.000 beads/200 μl were coated in 96-well plates in the presence of 4×12.5 ng different biotin-pMHC, washed and 600 ng biotin anti-CD28 were added subsequently in a volume of 200 μl. Stimulations were initiated in 96-well plates by co-incubating 1×10^6 CD8+ T-cells with 2×10^6 washed coated beads in 200 μl TCM supplemented with 5 ng/ml IL-12 (PromoCell) for 3 days at 37° C. Half of the medium was then exchanged by fresh TCM supplemented with 80 U/ml IL-2 and incubating was continued for 4 days at 37° C. This stimulation cycle was performed for a total of three times. For the pMHC multimer readout using 8 different pMHC molecules per condition, a two-dimensional combinatorial coding approach was used as previously described (Andersen et al., 2012) with minor modifications encompassing coupling to 5 different fluorochromes. Finally, multimeric analyses were performed by staining the cells with Live/dead near IR dye (Invitrogen, Karlsruhe, Germany), CD8-FITC antibody clone SK1 (BD, Heidelberg, Germany) and fluorescent pMHC multimers. For analysis, a BD LSRII SORP cytometer equipped with appropriate lasers and filters was used. Peptide specific cells were calculated as percentage of total CD8+ cells. Evaluation of multimeric analysis was done using the FlowJo software (Tree Star, Oregon, USA). In vitro priming of specific multimer+CD8+ lymphocytes was detected by comparing to negative control stimulations.

HLA-A*02:01 = HLA-A*02:01 (Homo sapiens, UniProt P04439, D140Y/D185E/D98H/E176V/E277Q/G131W/G231S/I119V/I121R/I166T/I218V/L300P/L318F/N151K/N90K/P208A/P217A/Q86G/Q94H/R138H/R169H/T345S); experiment: MHC binding assay (UV-ligand exchange, beta2m ELISA, peptide exchange yield); conditions: binding to HLA-A*02:01, β2m ELISA
Method in brief: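 Binding capacity is expressed as the yield of UV-mediated ligand exchange, reflecting how well each peptide stabilizes peptide-receptive MHC. Stabilized complexes are read out by anti-β2m HRP ELISA (450 nm) after streptavidin capture, with refolded MLA-001 monomer standards for quantitation.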

Substance | Wells positive [%] [1] | Peptide exchange (MHC class I binding score, peptide exchange yield) (HLA-A*02:01)
124 (RVLPPSALQSV; listed as Homo sapiens) [compound 124] | “+” (<20% = +) | “+++” (≥50 = +++)
127 (RLAELTVDEFLA; listed as Homo sapiens) [compound 127] | “+” (<20% = +) | “+++” (≥50 = +++)
132 (ALLNAILHSA; listed as Homo sapiens) [compound 132] | “+” (<20% = +) | “+++” (≥50 = +++)
133 (RTFEKIEEV; listed as Homo sapiens) [compound 133] | “+” (<20% = +) | “++” (≥20% = ++)
141 (AVIEHLERL; listed as Homo sapiens) [compound 141] | “+” (<20% = +) | “++++” (≥75% = ++++)
142 (SLVQRVETI; listed as Homo sapiens) [compound 142] | “+” (<20% = +) | “+++” (≥50 = +++)
150 (RLADLEALKV; listed as Homo sapiens) [compound 150] | “++” (20%-49% = ++) | “+++” (≥50 = +++)
